Assay results published in patent US11246856B2, “Methods of treating resistant cancers” (University of Maryland, Baltimore, priority 2017, dated 2022).
“Also recorded” adds a separate entry of the source.

Columns and labels:
Assay type in all cases: cell-based
A375 cells = test: Immunoblot of signaling, cell cycle and apoptosis markers in A375 cells
Method: Equivalent amounts of protein were electrophoresed on denaturing and reducing 10% polyacrylamide gels and transferred to nitrocellulose membrane. The membrane was blocked by 5% nonfat dry milk for one hour and incubated with 1:1000 primary antibody in 5% nonfat dry milk. Blots were rinsed in TBS-T and then incubated with secondary antibodies (1:5000) for 2 h. Secondary antibody binding was visualized using ECL Prime (Amersham) chemiluminescence detection technology. For immunostaining, cells were harvested, suspended in growth medium, and plated in LAB-TEK II Chamber Slide System. After 24 h, the cells were fixed with 4% paraformaldehyde at room temperature for 15 min, washed three with phosphate-buffered saline, in 0.1% Triton X-100 for 15 min, washed with phosphate-buffered saline, and blocked for 1 h with phosphate-buffered saline containing 7.5% fetal calf serum. Primary antibodies were added, and the slides incubated overnight at 4° C. Cells were then washed three times with phosphate-buffered saline and incubated 1 h with the appropriate Alexa Flour fluorescence probe-conjugated secondary antibody. After additional washing, the cells were stained with DAPI for 10 min prior to imaging.

[1] = test system: tumor-derived A375-PLX-R cells; test: Matrigel invasion of tumor-derived A375-PLX-R cells; settings: resistant (A375-PLX-R) cells, invasion assayed without drug, FIG. 6G
Method: (§1) Tumors were initiated and treated with PLX4032 or verteporfin as above. At 4 weeks, the tumors were removed, mechanically dissociated and dispersed as single cell suspensions with 0.25% trypsin for 10 min and plated as monolayer cultures. After 24 h, the cells were harvested and seeded at 25,000 cells/well atop a 0.1 ml matrigel layer in Millicell (1 cm diameter, […]) chambers in the presence of a serum gradient (38). After 18 h, the membranes were stained with DAPI and the nuclei of migrated cells were visualized by inverted fluorescence microscopy (38).

tumor-derived cells = test: Matrigel invasion of cells from verteporfin-treated tumors; settings: FIG. 6H
Method: as §1

Row | Compound | apoptosis (cleaved PARP accumulation, procaspase 8 and 9 levels) (A375 cells) | cyclin B and cyclin A level (A375 cells; FIGS. 3A-3B) | p21Cip1 and p27 level (A375 cells; FIGS. 3A-3B) | ERK1/2 signaling / phosphorylation (A375 cells; FIGS. 3A-3B, 3F) | matrigel invasion of tumor-derived cells after in vivo treatment [1] | matrigel invasion of tumor-derived cells after in vivo treatment (tumor-derived cells)
1 | CCCS(=O)(=O)Nc1ccc(F)c(C(=O)c2c[nH]c3ncc(-c4ccc(Cl)cc4)cc23)c1F [PLX4032] | enhances | reduced | increased | suppressed; also recorded: reduced | does not suppress | –
2 | verteporfin | – | – | – | – | – | reduced
